Measured values published in ChEMBL document CHEMBL3259793, “Novel cycloalkenepyrazoles as inhibitors of bub1 kinase” (ACS Med Chem Lett, 2014).

Molecular target: Mitotic checkpoint serine/threonine-protein kinase BUB1 (Homo sapiens, UniProt O43683)
Assay: Inhibition of Bub1 kinase (unknown origin) by TR-FRET kinase assay

Sequence of Mitotic checkpoint serine/threonine-protein kinase BUB1 (O43683 whole entry): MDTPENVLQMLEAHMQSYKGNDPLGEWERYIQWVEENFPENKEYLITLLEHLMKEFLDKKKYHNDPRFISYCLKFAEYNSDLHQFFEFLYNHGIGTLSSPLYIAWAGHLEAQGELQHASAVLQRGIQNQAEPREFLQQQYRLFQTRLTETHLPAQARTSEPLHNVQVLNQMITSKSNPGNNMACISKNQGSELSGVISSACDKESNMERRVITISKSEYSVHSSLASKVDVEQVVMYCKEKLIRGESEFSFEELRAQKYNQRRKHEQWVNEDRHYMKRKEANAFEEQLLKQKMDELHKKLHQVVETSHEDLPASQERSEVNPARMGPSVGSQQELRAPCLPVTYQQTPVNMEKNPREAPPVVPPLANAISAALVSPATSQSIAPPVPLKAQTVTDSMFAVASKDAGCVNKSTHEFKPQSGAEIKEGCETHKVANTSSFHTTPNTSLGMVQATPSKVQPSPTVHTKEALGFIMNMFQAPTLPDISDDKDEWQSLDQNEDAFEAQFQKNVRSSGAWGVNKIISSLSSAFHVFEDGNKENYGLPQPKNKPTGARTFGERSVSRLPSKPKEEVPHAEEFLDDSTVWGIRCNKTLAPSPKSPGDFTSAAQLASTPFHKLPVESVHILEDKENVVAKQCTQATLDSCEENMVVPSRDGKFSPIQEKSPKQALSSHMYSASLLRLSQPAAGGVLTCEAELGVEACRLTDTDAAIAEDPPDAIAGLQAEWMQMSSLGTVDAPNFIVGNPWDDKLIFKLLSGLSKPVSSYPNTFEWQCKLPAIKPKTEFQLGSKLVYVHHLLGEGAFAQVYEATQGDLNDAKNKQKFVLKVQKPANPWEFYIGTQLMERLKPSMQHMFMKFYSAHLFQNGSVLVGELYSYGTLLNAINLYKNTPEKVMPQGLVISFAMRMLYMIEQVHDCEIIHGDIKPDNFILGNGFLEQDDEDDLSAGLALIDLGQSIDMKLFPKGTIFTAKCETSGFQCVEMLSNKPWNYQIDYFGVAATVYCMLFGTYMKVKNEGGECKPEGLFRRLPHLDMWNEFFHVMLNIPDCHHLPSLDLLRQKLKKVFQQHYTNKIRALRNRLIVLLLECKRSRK

- IC50: 500 nM
SMILES: CCOC(=O)c1cnccc1Nc1nc(-c2nn(Cc3ccccc3F)c3c2CCC3)ncc1Oc1ccccc1C(=O)OCC
